Measured values taken from ChEMBL document CHEMBL1138248, “Synthesis and in vitro antiprotozoal activity of bisbenzofuran cations” (J Med Chem, 2007).

Legend:
[1] = system: Trypanosoma brucei rhodesiense; assay: Antitrypanosomal activity against Trypanosoma brucei rhodesiense STIB900; format: functional, organism-based
L6 = assay: Cytotoxicity against rat L6 cells
Plasmodium falciparum = assay: microbe, parasite or virus in culture; conditions: K1
Description: Antimalarial activity against chloroquine-resistant Plasmodium falciparum K1

Leishmania donovani = assay: […] activity against Leishmania donovani (MHOM/SD/62/1S-CL2D) axenic amastigotes; format: functional, organism-based

| SMILES | IC50 [1] [nM] | IC50 (L6) [µM] | IC50 (Plasmodium falciparum) [nM] | IC50 (Leishmania donovani) [nM] |
| --- | --- | --- | --- | --- |
| N=C(N)c1ccc2oc(CCc3cc4cc(C(=N)N)ccc4o3)cc2c1 | 8 | 21.5 | 3 | 1060 |
| C[C@@H]1CC[C@H]2[C@@H](C)C(=O)O[C@@H]3O[C@@]4(C)CC[C@@H]1[C@]32OO4 [ARTEMISININ] |  |  | 6 |  |
| CCN(CC)CCCC(C)Nc1ccnc2cc(Cl)ccc12 (stereo not drawn) [CHLOROQUINE] |  | 117 |  |  |
| N=C(N)c1ccc(OCCCCCOc2ccc(C(=N)N)cc2)cc1 [PENTAMIDINE] |  |  |  | 1830 |
| COc1cc([C@@H]2c3cc4c(cc3[C@H](O)[C@H]3COC(=O)[C@H]23)OCO4)cc(OC)c1OC [PODOFILOX] |  | 0.01 |  |  |
